Consider 26 compounds from patent publication EP1914236A1 (Ortho-McNeil Pharmaceutical, Inc., priority 2002, dated 2003).

In one assay the target is T1, CHO-hB2 cell membranes (Homo sapiens, UniProt P30411).
T1 construct: purchased Receptor Biology, Inc. (Baltimore, MD); host or cells: CHO-hB2 cells (membranes)
T1 sequence (P30411 1-391): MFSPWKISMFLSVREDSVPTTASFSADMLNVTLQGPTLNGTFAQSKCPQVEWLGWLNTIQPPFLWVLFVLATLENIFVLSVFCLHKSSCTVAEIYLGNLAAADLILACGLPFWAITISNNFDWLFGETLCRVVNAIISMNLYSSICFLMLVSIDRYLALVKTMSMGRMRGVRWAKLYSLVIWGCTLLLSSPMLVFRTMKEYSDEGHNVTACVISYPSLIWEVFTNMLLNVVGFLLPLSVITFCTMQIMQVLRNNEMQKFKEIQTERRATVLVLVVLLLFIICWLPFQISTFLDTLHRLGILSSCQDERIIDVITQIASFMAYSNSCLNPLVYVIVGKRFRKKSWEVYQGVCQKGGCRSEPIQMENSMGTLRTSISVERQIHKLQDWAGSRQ
Kind of assay: [35S]GTPγS Binding Assay in CHO-hB2 Cell Membranes. The conditions noted are these: for Functional Activity (% Basal): number in parentheses, bradykinin-stimulated [35S]GTPγS binding, test concentration not given; for Functional Activity: word part of the cell, effect on bradykinin-stimulated [35S]GTPγS binding. Type of assay: biochemical. The procedure: CHO-hB2 cell membranes were purchased from Receptor Biology, Inc. (Baltimore,MD). 10 mg/mL of membrane protein was suspended in 10 mM TRIS-HC pH 7.2, 2 mM EDTA, 10% sucrose.
Membranes were added into 15 mL ice cold binding assay buffer. The assay buffer contained 50 mM HEPES, pH 7.6, 5 mM MgCl2, 100 mM NaCl, 1 mM DTT and 1 mM EDTA. The membrane suspension was homogenized twice with a Polytron and centrifuged at 3000 rpm for 10 min. The supernatant was then centrifuged at 18,000 rpm for 20 min. The pellet was saved in a tube and resuspended.
The pellet membranes (40 µg/mL) were preincubated with SPA (scintillation proximity assay) beads (20 mg/mL) at 25C° for 45 min in the assay buffer. The SPA beads (5 mg/mL) coupled with membranes (10 µg/mL) were then incubated with 0.5 nM [^35S]GTPγS in the same HEPES buffer containing 50 µM GDP in total volume of 200 µL. Bradykinin was used to stimulate [^35S]GTPγS binding. Varying concentrations of drugs were incubated with bradykinin to inhibit bradykinin-stimulated [^35S]GTPγS binding. The basal binding was tested in the absence of bradykinin and no specific binding was tested in the present 10 µM unlabeled GTPγS. The radioactivity was quantified on a Packard Top Count, and calculated. % of Basal = (stimulated binding-non specific binding)/(basal binding-non specific binding) × 100. [formula]

For assay [1], the target named is T2, human B2 bradykinin receptors (Homo sapiens, UniProt P30411).
T2 construct: purchased Receptor Biology, Inc. (Baltimore, MD); host or cells: CHO-K1 cells transfected with the human B2 receptor (membranes)
T2 sequence (P30411 1-391): T1 sequence (P30411 1-391)
Kind of assay: Bradykinin B2 (BK2) Receptor Binding Assay. As to conditions: membranes of CHO-K1 cells transfected with human B2 bradykinin receptors; ~0.25 nM [3H]NPC17731; 60 min at 25°C. The procedure:
Cell membranes of CHO-K1 cells transfected with human B2 bradykinin receptors (CH)-hB2) were purchased from Receptor Biology, Inc. (Baltimore,MD).
Samples were harvested on a Brandel Cell Harvester on to Wallac filtermat B sheets (96 sample format), and washed three times with 2 mL cold HEPES-buffer (10 mM, pH 7.5), and dried in a microwave oven.
The data were used to calculate either the % inhibition compared to control binding (when only a single concentration of test compound was evaluated) or a Ki value (when a range of concentrations were tested). Background was subtracted from mean cpm values and % inhibition was calculated as: [(total dpm-test compound dpm)/(total dpm-nonspecific dpm)]x100. Kd and Ki values were calculated using GraphPad PRISM data analysis program.

Turning to `Cc1ccc2cccc(OCc3c(Cl)ccc(N(C)C(=O)Cc4cc(C(=O)c5ccc(C#N)cc5)n(C)c4)c3Cl)c2n1` [Compound 4, 2-[5-(4-Cyano-benzoyl)-1-methyl-1H-pyrrol-3-yl]-N-[2,4-dichloro-3-(2-methyl-quinolin-8-yloxymethyl)-phenyl]-N-methyl-acetamide], on CHO-hB2 cell membranes, the “Functional Activity (% Basal)” value is reported as 24 % Basal and the “Functional Activity” value is given as “Antagonist”. Affinity in assay [1] was put at a Ki of 1350 nM.

With `COc1ccc(C(=O)c2ccc(CC(=O)N(C)c3ccc(Cl)c(COc4cccc5ccc(C)nc45)c3Cl)[nH]2)cc1` [Compound 5], on CHO-hB2 cell membranes, the “Functional Activity (% Basal)” value came to 61 % Basal and the “Functional Activity” value was “Antagonist”. Also, the Ki in assay [1] came out at 71 nM.

Take `CCCn1c(CC(=O)N(C)c2ccc(Cl)c(COc3cccc4ccc(C)nc34)c2Cl)ccc1C(=O)c1ccc(C#N)cc1` [Compound 9]: on CHO-hB2 cell membranes, the “Functional Activity (% Basal)” value was 1 % Basal and the “Functional Activity” value is recorded as “No effect”. In assay [1], the Ki worked out at 27 nM.

Consider `CCCCn1c(CC(=O)N(C)c2ccc(Cl)c(COc3cccc4ccc(C)nc34)c2Cl)ccc1C(=O)c1ccc(C#N)cc1` [Compound 10], for which, at CHO-hB2 cell membranes, the “Functional Activity (% Basal)” value came to 1 % Basal and the “Functional Activity” value is “No effect”. Also, affinity in assay [1] was put at a Ki of 29 nM.

`Cc1ccc2cccc(OCc3c(Cl)ccc(N(C)C(=O)Cc4ccc(C(=O)c5ccc(C#N)cc5)n4CC4CC4)c3Cl)c2n1` [Compound 11, 2-[5-(4-Cyano-benzoyl)-1-cyclopropylmethyl-1H-pyrrol-2-yl]-N-[2,4-dichloro-3-(2-methyl-quinolin-8-yloxymethyl)-phenyl]-N-methyl-acetamide]: at CHO-hB2 cell membranes, the “Functional Activity (% Basal)” value came to 1 % Basal and the “Functional Activity” value is given as “No effect”. This compound showed a Ki in assay [1] of 48 nM.

For `Cc1ccc2cccc(OCc3c(Cl)ccc(N(C)C(=O)Cc4ccc(C(=O)c5ccc(C#N)cc5)n4CC(C)C)c3Cl)c2n1` [Compound 12], at CHO-hB2 cell membranes, the “Functional Activity (% Basal)” value was 1 % Basal and the “Functional Activity” value is listed as “No effect”. The Ki in assay [1] was 54 nM.

On to `Cc1ccc2cccc(OCc3c(Cl)ccc(N(C)C(=O)Cc4ccc(C(=O)c5ccc(C#N)cc5)n4CCC(C)C)c3Cl)c2n1` [Compound 13], for which, on CHO-hB2 cell membranes, the “Functional Activity (% Basal)” value is 1 % Basal and the “Functional Activity” value was “No effect”. Further, the Ki in assay [1] is 44 nM.

Regarding `Cc1ccc2cccc(OCc3c(Cl)ccc(NC(=O)Cc4ccc(C(=O)c5ccc(C#N)cc5)n4C)c3Cl)c2n1` [Compound 15], the “Functional Activity” value at CHO-hB2 cell membranes was “Weak antagonist”.

In the case of `CCN(C(=O)Cc1ccc(C(=O)c2ccc(C#N)cc2)n1C)c1ccc(Cl)c(COc2cccc3ccc(C)nc23)c1Cl` [Compound 18], on CHO-hB2 cell membranes, the “Functional Activity (% Basal)” value was determined as 1 % Basal and the “Functional Activity” value is “No effect”. This compound registered a Ki in assay [1] of 55 nM.

In assay [1], `CCOc1ccc(C(=O)c2ccc(CCC(=O)N(C)c3ccc(Cl)c(COc4cccc5ccc(C)nc45)c3Cl)n2C)cn1` [Compound 87] showed an inhibition constant (Ki) of 143 nM.

`COc1ccc(-c2ccc(CC(=O)N(C)c3ccc(C)c(COc4cccc5ccc(C)nc45)c3C)n2C)cc1` [Compound 96, N-[2,4-Dimethyl-3-(2-methyl-quinolin-8-yloxymethyl)-phenyl]-2-[5-(4-methoxyphenyl)-1-methyl-1H-pyrrol-2-yl]-N-methyl-acetamide] had a Ki in assay [1] of 2120 nM.

Regarding `Cc1ccc2cccc(OCc3c(C)ccc(N(C)C(=O)Cc4ccc(-c5ccccc5)n4C)c3C)c2n1` [Compound 97, N-[2,4-Dimethyl-3-(2-methyl-quinolin-8-yloxymethyl)-phenyl]-N-methyl-2-(1-methyl-5-phenyl-1 H-pyrrol-2-yl)-acetamide], the Ki in assay [1] stood at 7190 nM.

Compound `Cc1ccc(-c2ccc(CC(=O)N(C)c3ccc(C)c(COc4cccc5ccc(C)nc45)c3C)n2C)cc1` [Compound 98, N-[2,4-Dimethyl-3-(2-methyl-quinolin-8-yloxymethyl)-phenyl]-N-methyl-2-(1-methyl-5-p-tolyl-1H-pyrrol-2-yl)-acetamide] gave a Ki in assay [1] of 3610 nM.

`Cc1nc2c(OCc3c(Cl)ccc(N(C)C(=O)Cc4ccc(C(=O)c5ccc(C#N)cc5)n4C)c3Cl)cccn2c1Br` [Compound 102, N-[3-(3-Bromo-2-methyl-imidazo[1,2-a]pyridin-8-yloxymethyl)-2,4-dichlorophenyl]-2-[5-(4-cyano-benzoyl)-1-methyl-1H-pyrrol-2-yl]-N-methyl-acetamide]: the inhibition constant (Ki) in assay [1] is 47.4 nM.

Take `Cc1nc2c(OCc3c(Cl)ccc(N(C)C(=O)Cc4ccc(C(=O)c5ccc(S(C)(=O)=O)cc5)n4C)c3Cl)cccn2c1Br` [Compound 103, N-[3-(3-Bromo-2-methyl-imidazo[1,2-a]pyridin-8-yloxymethyl)-2,4-dichlorophenyl]-2-[5-(4-methanesulfonyl-benzoyl)-1-methyl-1H-pyrrol-2-yl]-N-methyl-acetamide]: in assay [1], the affinity, expressed as Ki, was 68.5 nM.

For `Cc1ccc2cccc(OCc3c(C)ccc(N(C)C(=O)CCc4ccc(C(=O)c5ccccc5)s4)c3C)c2n1` [Compound 104], the affinity in assay [1] corresponds to a Ki of 554 nM.

`Cc1ccc2cccc(OCc3c(Cl)ccc(N(C)C(=O)CCc4ccc(C(=O)c5ccccc5)s4)c3Cl)c2n1` [Compound 105]: the affinity in assay [1] corresponds to a Ki of 882 nM. This Ki is about 1.6-fold higher than that of the compound before.

On to `COc1ccc(C(=O)c2ccc(CCC(=O)N(C)c3ccc(C)c(COc4cccc5ccc(C)nc45)c3C)s2)cc1` [Compound 106], for which the Ki in assay [1] turned out to be 375 nM.

With `COc1ccc(C(=O)c2ccc(CCC(=O)N(C)c3ccc(Cl)c(COc4cccc5ccc(C)nc45)c3Cl)s2)cc1` [Compound 107], affinity in assay [1] was put at a Ki of 321 nM.

For the compound `Cc1ccc2cccc(OCc3c(Cl)ccc(N(C)C(=O)Cc4ccc(C(=O)c5ccccc5)s4)c3Cl)c2n1` [Compound 109, 2-(5-Benzoyl-thiophen-2-yl)-N-[2,4-dichloro-3-(2-methyl-quinolin-8-yloxymethyl)-phenyl]-N-methyl-acetamide], the affinity in assay [1] corresponds to a Ki of 53 nM.

`Cc1ccc2cccc(OCc3c(Cl)ccc(N(C)C(=O)Cc4cc(C(=O)c5ccc(C#N)cc5)cs4)c3Cl)c2n1` [Compound 115, 2-[4-(4-Cyano-benzoyl)-thiophen-2-yl]-N-[2,4-dichloro-3-(2-methyl-quinolin-8-yloxymethyl)-phenyl]-N-methyl-acetamide]: in assay [1], the Ki worked out at 6.4 nM.

Compound `Cc1ccc2cccc(OCc3cccc(N(C)C(=O)Cc4ccc(C(=O)c5cccc(C#N)c5)n4C)c3Cl)c2n1` [Compound 116, N-[2-Chloro-3-(2-methyl-quinolin-8-yloxymethyl)-phenyl]-2-[5-(3-cyanobenzoyl)-1-methyl-1 H-pyrrol-2-yl]-N-methyl-acetamide] returned a Ki in assay [1] of 17600 nM.

For the compound `Cc1ccc2cccc(OCc3c(Cl)ccc(N(C)C(=O)Cc4ccc(C(=O)c5ccc(N(C)C)cc5)n4C)c3Cl)c2n1` [Compound 118, N-[2,4-Dichloro-3-(2-methyl-quinolin-8-yloxymethyl)-phenyl]-2-[5-(4-dimethylamino-benzoyl)-1-methyl-1H-pyrrol-2-yl]-N-methyl-acetamide], the Ki in assay [1] was 428 nM.

Take `COc1ccc(C(=O)c2ccc(CC(=O)Nc3ccc(Cl)c(COc4cccc5ccc(C)nc45)c3Cl)n2C)cc1` [Compound 119]: the Ki in assay [1] came out at 14000 nM.

For `COc1ccc(C(=O)c2c(C)cc(CC(=O)Nc3ccc(Cl)c(COc4cccc5ccc(C)nc45)c3Cl)n2C)cc1` [Compound 120], in assay [1], the Ki is 1560 nM. This Ki lies about 9-fold lower than the previous one.

For the compound `Cc1ccc2cccc(OCc3c(Cl)ccc(NC(=O)Cc4cc(C)c(C(=O)c5ccc(N)cc5)n4C)c3Cl)c2n1` [Compound 121], the Ki in assay [1] was determined as 19800 nM. Compared with the last compound, the Ki is about 13-fold higher.

As a reminder, the Ki is a measure of affinity in units of concentration, obtained from inhibition or displacement.
